Measurements as given in ChEMBL document CHEMBL1151574, “Convergent syntheses and cytostatic properties of 2-chloro-2-deoxy-2-fluoroadenosine and its N7-isomer” (1995).
The source made the active and inactive calls. No cut-off for these calls is given here.

Tests used:
PHA-Ly [1] = assay: In vitro toxicity against phytohemagglutininin-stimulated peripheral blood lymphocytes (PHA-Ly) at a concentration of 10 ug/ml; assay type: functional, Homo sapiens
PHA-Ly [2] = assay: In vitro toxicity against phytohemagglutininin-stimulated peripheral blood lymphocytes (PHA-Ly) at a concentration of 0.1 ug/ml; assay type: functional, Homo sapiens
PHA-Ly [3] = assay: In vitro toxicity against phytohemagglutininin-stimulated peripheral blood lymphocytes (PHA-Ly) at a concentration of 0.01 ug/ml; assay type: functional, Homo sapiens
Raji [4] = assay: In vitro toxicity against Burkitt's lymphoma (B-cell) (Raji) at a concentration of 0.01 ug/ml; assay type: functional, Homo sapiens
Raji [5] = assay: In vitro toxicity against Burkitt's lymphoma (B-cell) (Raji) at a concentration of 1.0 ug/ml; assay type: functional, Homo sapiens
U-937 [6] = assay: In vitro toxicity against histocytic lymphoma (U-937) at a concentration of 1.0 ug/ml; assay type: functional, Homo sapiens
MOLT-3 [7] = assay: In vitro toxicity against acute T cell leukemia (MOLT-3) at a concentration of 0.1 ug/ml; assay type: functional, Homo sapiens
Raji [8] = assay: In vitro toxicity against Burkitt's lymphoma (B-cell) (Raji) at a concentration of 0.1 ug/ml; assay type: functional, Homo sapiens
IM-9 [9] = assay: In vitro toxicity against myeloma cell line (IM-9) at a concentration of 10 ug/ml; assay type: functional, Homo sapiens
PHA-Ly [10] = assay: In vitro toxicity against phytohemagglutininin-stimulated peripheral blood lymphocytes (PHA-Ly) at a concentration of 1.0 ug/ml; assay type: functional, Homo sapiens
MOLT-3 [11] = assay: In vitro toxicity against acute T cell leukemia (MOLT-3) at a concentration of 0.01 ug/ml; assay type: functional, Homo sapiens
U-937 [12] = assay: In vitro toxicity against histocytic lymphoma (U-937) at a concentration of 0.1 ug/ml; assay type: functional, Homo sapiens
Raji [13] = assay: In vitro toxicity against Burkitt's lymphoma (B-cell) (Raji) at a concentration of 10 ug/ml; assay type: functional, Homo sapiens
IM-9 [14] = assay: In vitro toxicity against myeloma cell line (IM-9) at a concentration of 0.01 ug/ml; assay type: functional, Homo sapiens
MOLT-3 [15] = assay: In vitro toxicity against acute T cell leukemia (MOLT-3) at a concentration of 1.0 ug/ml; assay type: functional, Homo sapiens
MOLT-3 [16] = assay: In vitro toxicity against acute T cell leukemia (MOLT-3) at a concentration of 10 ug/ml; assay type: functional, Homo sapiens
IM-9 [17] = assay: In vitro toxicity against myeloma cell line (IM-9) at a concentration of 0.1 ug/ml; assay type: functional, Homo sapiens
U-937 [18] = assay: In vitro toxicity against histocytic lymphoma (U-937) at a concentration of 0.01 ug/ml; assay type: functional, Homo sapiens
IM-9 [19] = assay: In vitro toxicity against myeloma cell line (IM-9) at a concentration of 1.0 ug/ml; assay type: functional, Homo sapiens
U-937 [20] = assay: In vitro toxicity against histocytic lymphoma (U-937) at a concentration of 10 ug/ml; assay type: functional, Homo sapiens
MOLT-3 [21] = assay: In vitro toxicity against acute T cell leukemia (MOLT-3) at a concentration of 10 ug/ml; No significant toxicity; assay type: functional, cell-based; settings: Homo sapiens
IM-9 [22] = assay: In vitro toxicity against myeloma cell line (IM-9) at a concentration of 10 ug/ml; No significant toxicity; assay type: functional, cell-based; settings: Homo sapiens
U-937 [23] = assay: In vitro toxicity against histocytic lymphoma (U-937) at a concentration of 10 ug/ml; No significant toxicity; assay type: functional, cell-based; settings: Homo sapiens
PHA-Ly [24] = assay: In vitro toxicity against phytohemagglutininin-stimulated peripheral blood lymphocytes (PHA-Ly) at a concentration of 10 ug/ml; No significant toxicity; assay type: functional, cell-based; settings: Homo sapiens
Raji [25] = assay: In vitro toxicity against Burkitt's lymphoma (B-cell) (Raji) at a concentration of 10 ug/ml; No significant toxicity; assay type: functional, cell-based; settings: Homo sapiens

Nc1nc(Cl)nc2c1ncn2[C@@H]1O[C@H](CO)C(O)[C@H]1F (single isomer, unassigned)
Toxicity (PHA-Ly [1]): 4%
Toxicity (PHA-Ly [2]): 90%
Toxicity (PHA-Ly [3]): 98%
Toxicity (Raji [4]): 103%
Toxicity (Raji [5]): 9.1%
Toxicity (U-937 [6]): 4.9%
Toxicity (MOLT-3 [7]): 79%
Toxicity (Raji [8]): 68%
Toxicity (IM-9 [9]): 5.7%
Toxicity (PHA-Ly [10]): 17%
Toxicity (MOLT-3 [11]): 106%
Toxicity (U-937 [12]): 70%
Toxicity (Raji [13]): 2.5%
Toxicity (IM-9 [14]): 108%
Toxicity (MOLT-3 [15]): 3.3%
Toxicity (MOLT-3 [16]): 2.6%
Toxicity (IM-9 [17]): 110%
Toxicity (U-937 [18]): 99%
Toxicity (IM-9 [19]): 19%
Toxicity (U-937 [20]): 1.8%

Nc1nc(Cl)nc2ncn([C@@H]3O[C@H](CO)C(O)[C@H]3F)c12 (single isomer, unassigned)
Toxicity (MOLT-3 [21]): inactive
Toxicity (IM-9 [22]): inactive
Toxicity (U-937 [23]): inactive
Toxicity (PHA-Ly [24]): inactive
Toxicity (Raji [25]): inactive
